SMILES strings stand for the structures.

The target in one assay is JH2 domain of human Tyk2 (Homo sapiens (Human), UniProt P29597). Description: JH2 Biochemical Assay (TR-FRET probe displacement). It counts as binding. The settings on record: JH2 domain of human Tyk2, TR-FRET probe displacement. Here is the method: The inhibitory potency of compounds of the disclosure against the kinase activity of recombinantly generated JH2 domain of human Tyk2 was evaluated in a plate-based assay using a TR-FRET assay platform. Briefly, 2 nM of recombinant JH2 domain [10×His-tagged TYK2 JH2 domain (amino acid 575-876)] was combined with 2 nM probe ((S)-6-amino-9-(2-carboxy-4-((1-(3-(8-methyl-5-(methylamino)-8H-imidazo[4,5-d]thiazolo[5,4-b]pyridin-2-yl)phenyl)ethyl)carbamoyl)phenyl)-3-iminio-5-sulfo-3H-xanthene-4-sulfonate), 0.1 nM Tb-labeled anti-His antibody, and compounds of disclosure for 60 minutes. Compounds are tested at either 10 μM or 1 μM top concentration, 10 points of 3-fold dilution. The TR-FRET signal inversely correlates to the amount of probe displaced by compounds and signal was calculated by taking the ratio of fluorescence at 520 nm and 495 nm. The data was normalized and the percent activity versus log concentration of compound was fitted with a 4-parameter logistic model to generate IC50 curves.
JH2 domain of human Tyk2, sequence (P29597 575-876): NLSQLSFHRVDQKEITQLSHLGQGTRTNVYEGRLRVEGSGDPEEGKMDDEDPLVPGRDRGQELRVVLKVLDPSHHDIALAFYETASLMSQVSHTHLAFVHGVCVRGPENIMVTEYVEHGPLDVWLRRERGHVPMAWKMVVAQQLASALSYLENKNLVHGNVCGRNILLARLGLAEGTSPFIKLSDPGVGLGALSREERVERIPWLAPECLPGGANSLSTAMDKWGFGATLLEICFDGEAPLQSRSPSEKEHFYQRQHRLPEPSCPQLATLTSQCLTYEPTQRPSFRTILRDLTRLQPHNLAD
The compound `COc1cc(C)nc(-c2cnc(NC(C)=O)cc2Nc2cc(C)nc(C(C)(F)F)n2)n1` [Example 621, N-(4-((2-(1,1-difluoroethyl)-6-methylpyrimidin-4-yl)amino)-5-(4-methoxy-6-methylpyrimidin-2-yl)pyridin-2-yl)acetamide] displayed an IC50 of 10 to 100 nM. The same measure, in the same setting: as for `CC(=O)Nc1cc(Nc2ccnc(C(C)(F)F)n2)c(-n2cc(C#N)cn2)cn1` [Example 732, N-(5-(4-cyanO1H-pyrazol-1-yl)-4-((2-(1,1-difluoroethyl)pyrimidin-4-yl)amino)pyridin-2-yl)acetamide], the figure is 10 to 100 nM. The same measure, in the same setting: as for `COc1ccc(-c2cnc(NC(C)=O)cc2Nc2cc(C)nc(C(C)(F)F)n2)nc1F` [Example 622, N-(4′-((2-(1,1-difluoroethyl)-6-methylpyrimidin-4-yl)amino)-6-fluorO5-methoxy-[2,3′-bipyridin]-6′-yl)acetamide], the figure is no more than 10 nM. On the same count and under the same terms, the figure for `COc1cnc(NC(C)=O)cc1Nc1cc(-c2cc(C)c3nc(C)nn3c2)nc(C(C)(F)F)n1` [Example 397, N-(4-((2-(1,1-difluoroethyl)-6-(2,8-dimethyl-[1,2,4]triazolo[1,5-a]pyridin-6-yl)pyrimidin-4-yl)amino)-5-methoxypyridin-2-yl)acetamide] is no more than 10 nM. As for `CC(=O)Nc1cc(Nc2cc(C)nc(C(C)(F)F)n2)c(N2CCOCC2)cn1` [Example 727, N-(4-((2-(1,1-difluoroethyl)-6-methylpyrimidin-4-yl)amino)-5-morpholinopyridin-2-yl)acetamide], the half-maximal inhibitory concentration (IC50) lay within 100 to 1000 nM. As for `CC(=O)Nc1cc(Nc2cc(C)nc(C(C)(F)F)n2)c(-c2nc(C)ns2)cn1` [Example 618, N-(4-((2-(1,1-difluoroethyl)-6-methylpyrimidin-4-yl)amino)-5-(3-methyl-1,2,4-thiadiazol-5-yl)pyridin-2-yl)acetamide], the IC50 is no more than 10 nM. `COc1nc(C)cc(Nc2cc(NC(C)=O)ncc2OC)n1` [Example 452, N-(5-methoxy-4-((2-methoxy-6-methylpyrimidin-4-yl)amino)pyridin-2-yl)acetamide]: the IC50 was 10 to 100 nM.

The assay is the same for the next values; noted with them: TR-FRET probe displacement, JH2 domain.
`CC(=O)Nc1cc(Nc2cc(C)nc(C(C)(F)F)n2)c(-c2cc(CN3CCOCC3)ccn2)cn1` [Example 806, N-(4′-((2-(1,1-difluoroethyl)-6-methylpyrimidin-4-yl)amino)-4-(morpholinomethyl)-[2,3′-bipyridin]-6′-yl)acetamide]: the IC50 was no more than 10 nM.

Staying with this assay, now noted: TR-FRET probe displacement, JH2 domain of human Tyk2.
`CC(=O)Nc1cc(Nc2cc(C)nc(C(C)(F)F)n2)c(OCCOC2CC2)cn1` [Example 316, N-(5-(2-cyclopropoxyethoxy)-4-((2-(1,1-difluoroethyl)-6-methylpyrimidin-4-yl)amino)pyridin-2-yl)acetamide] had an IC50 of no more than 10 nM. Same read-out and setting: the figure for `CC(=O)Nc1cc(Nc2cc(C)nc(C(C)(F)F)n2)c(OCC2(C)CCOCC2)cn1` [Example 317, N-(4-((2-(1,1-difluoroethyl)-6-methylpyrimidin-4-yl)amino)-5-((4-methyltetrahydro-2H-pyran-4-yl)methoxy)pyridin-2-yl)acetamide] is no more than 10 nM; for `CCc1cc(Nc2cc(NC(C)=O)ncc2-c2ccc(OC)nn2)nc(C(C)(F)F)n1` [Example 220, N-(4-((2-(1,1-difluoroethyl)-6-ethylpyrimidin-4-yl)amino)-5-(6-methoxypyridazin-3-yl)pyridin-2-yl)acetamide] it is no more than 10 nM. As for `COCCCc1cnc(NC(C)=O)cc1Nc1cc(C)nc(C(C)(F)F)n1` [Example 152, N-(4-((2-(1,1-difluoroethyl)-6-methylpyrimidin-4-yl)amino)-5-(3-methoxypropyl)pyridin-2-yl)acetamide], the IC50 lay within 10 to 100 nM. Same read-out and setting: the figure for `CC(=O)Nc1cc(Nc2cc(C)nc(C(C)(F)F)n2)c(OCC2(CF)CCOCC2)cn1` [Example 340, N-(4-((2-(1,1-difluoroethyl)-6-methylpyrimidin-4-yl)amino)-5-((4-(fluoromethyl)tetrahydro-2H-pyran-4-yl)methoxy)pyridin-2-yl)acetamide] is 10 to 100 nM.

The IC50 is the concentration needed to halve the response being measured. Low values mean greater potency in that assay, high ones weaker potency in that assay.

(Values after patent US20260028365A1 (BIOGEN MA INC., priority 2022, published 2026).)
